# From patent US10294202B2, “Pyrrolidinones as herbicides” (FMC Corporation, priority 2013, dated 2019)
# How the values were obtained:
# [1] = test system: rice; test: Test B flooded paddy test; assay type: in vivo, Oryza sativa; conditions: 500 g ai/ha, Flood; scale of 0 to 100 where 0 is no effect and 100 is complete control
# Procedure, shortened: (§1)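 In-water application to pots flooded 3 cm deep, plants at 2-leaf stage. Held in greenhouse 13–15 days at constant flood depth. Scored 0–100 by eye against controls.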
# [2] = test system: barnyardgrass; test: Test A pre-/postemergence herbicide test; assay type: in vivo, Echinochloa crus-galli
# Procedure, shortened: (§2)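 Approximately 10 days after treatment in the greenhouse, plants were compared with untreated controls and given a 0–100 visual injury rating. Applications: preemergence directed soil spray; postemergence on 2–10 cm plants at the one- to two-leaf stage.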
# [3] = test system: kochia; test: Test A pre-/postemergence herbicide test; assay type: in vivo, Kochia scoparia; conditions: for Plant response rating, Kochia: 0 to 100 scale
# Procedure, shortened: as §2
# [4] = test system: barnyardgrass; test: Test B flooded paddy test; assay type: in vivo, Echinochloa crus-galli; conditions: 500 g ai/ha, Flood; scale of 0 to 100 where 0 is no effect and 100 is complete control
# Procedure, shortened: as §1
# [5] = test system: sedge, umbrella; test: Test B flooded paddy test; assay type: in vivo, Cyperus difformis; conditions: 500 g ai/ha, Flood; scale of 0 to 100 where 0 is no effect and 100 is complete control
# Procedure, shortened: as §1
# [6] = test system: ryegrass, Italian; test: Test A pre-/postemergence herbicide test; assay type: in vivo, Lolium multiflorum; conditions: for Plant response rating, Ryegrass, Italian: 0 to 100 scale
# Procedure, shortened: as §2
# [7] = test system: ragweed; test: Test A pre-/postemergence herbicide test; assay type: in vivo, Ambrosia elatior; conditions: for Plant response rating, Ragweed: 0 to 100 scale
# Procedure, shortened: as §2
# [8] = test system: wheat; test: Test A pre-/postemergence herbicide test; assay type: in vivo, Triticum aestivum; conditions: Postemergence; for Plant response rating, Wheat: 125 g ai/ha, 0 to 100 scale, 0 no effect, 100 complete control; for Wheat plant response rating (0 to 100 scale, 0 is no effect, 100 is complete control): 500 g ai/ha
# Procedure, shortened: as §2
# [9] = test system: blackgrass; test: Test A postemergence herbicide test; assay type: in vivo, Alopecurus myosuroides; conditions: for Plant response rating, Blackgrass: 125 g ai/ha, 0 to 100 scale, 0 no effect, 100 complete control; for Blackgrass plant response rating (0 to 100 scale, 0 is no effect, 100 is complete control): 500 g ai/ha
# Procedure, shortened: (§3)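 Young potted plants in a loam–sand mix, one- to two-leaf stage and 2–10 cm tall, receive the test chemical postemergence and stay in a greenhouse for approximately 10 days. Injury is then judged by eye against untreated plants, scored 0 (none) to 100 (complete control).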
# [10] = test system: ducksalad; test: Test B flooded paddy test; assay type: in vivo, Heteranthera limosa; conditions: 500 g ai/ha, Flood; scale of 0 to 100 where 0 is no effect and 100 is complete control
# Procedure, shortened: as §1
# [11] = test system: corn; test: Test A pre-/postemergence herbicide test; assay type: in vivo, Zea mays; conditions: Postemergence; for Plant response rating, Corn: 125 g ai/ha, 0 to 100 scale, 0 no effect, 100 complete control; for Corn plant response rating (0 to 100 scale, 0 is no effect, 100 is complete control): 500 g ai/ha
# Procedure, shortened: as §2
# [12] = test system: pigweed; test: Test A pre-/postemergence herbicide test; assay type: in vivo, Amaranthus retroflexus; conditions: for Plant response rating, Pigweed: 0 to 100 scale
# Procedure, shortened: as §2
# [13] = test system: giant foxtail; test: Test A pre-/postemergence herbicide test; assay type: in vivo, Setaria faberii; conditions: for Plant response rating, Foxtail, Giant: 0 to 100 scale
# Procedure, shortened: as §2
# [14] = test system: galium; test: Test A postemergence herbicide test; assay type: in vivo, Galium aparine; conditions: for Plant response rating, Galium: 125 g ai/ha, 0 to 100 scale, 0 no effect, 100 complete control; for Galium plant response rating (0 to 100 scale, 0 is no effect, 100 is complete control): 500 g ai/ha
# Procedure, shortened: as §3
# [15] = 125 g ai/ha, visual rating, 0 to 100 scale, 0 no effect, 100 complete control, approximately 10 days, preemergence
# [16] = Postemergence, 125 g ai/ha, 0 to 100 scale, 0 no effect, 100 complete control
# [17] = preemergence, 500 g ai/ha, 0 to 100 scale (0 no effect, 100 complete control)
# [18] = 125 g ai/ha, visual rating, 0 no effect, 100 complete control, approximately 10 days, preemergence
# [19] = Postemergence, 125 g ai/ha, 0 no effect, 100 complete control
Compound,"Plant response rating, Rice [1]","Plant response rating, Barnyardgrass [2, 15]","Plant response rating, Barnyardgrass [2, 16]","Barnyardgrass plant response rating (0 to 100 scale, 0 is no effect, 100 is complete control) ([2]; Postemergence, 500 g ai/ha)","Plant response rating, Barnyardgrass [2, 17]","Plant response rating, Kochia [3, 18]","Plant response rating, Kochia [3, 19]","Kochia plant response rating (0 to 100 scale, 0 is no effect, 100 is complete control) ([3]; Postemergence, 500 g ai/ha)","Plant response rating, Kochia ([3]; preemergence, 500 g ai/ha)","Plant response rating, Barnyardgrass [4]","Plant response rating, Sedge, Umbrella [5]","Plant response rating, Ryegrass, Italian [6, 18]","Plant response rating, Ryegrass, Italian [6, 19]","Ryegrass, Italian plant response rating (0 to 100 scale, 0 is no effect, 100 is complete control) ([6]; Postemergence, 500 g ai/ha)","Plant response rating, Ryegrass, Italian ([6]; preemergence, 500 g ai/ha)","Plant response rating, Ragweed [7, 18]","Plant response rating, Ragweed [7, 19]","Ragweed plant response rating (0 to 100 scale, 0 is no effect, 100 is complete control) ([7]; Postemergence, 500 g ai/ha)","Plant response rating, Ragweed ([7]; preemergence, 500 g ai/ha)","Plant response rating, Wheat [8]",other results
COc1cc(C2CNC(=O)C2C(=O)Nc2ccc(F)c(F)c2F)ccc1F (racemic) [Compound 132],0,70,60,80,90,0,0,10,0,40,0,0,0,0,0,0,0,0,0,0,"Wheat plant response rating (0 to 100 scale, 0 is no effect, 100 is complete control) [8]: 0; Plant response rating, Blackgrass [9]: 0; Blackgrass plant response rating (0 to 100 scale, 0 is no effect, 100 is complete control) [9]: 0; Plant response rating, Ducksalad [10]: 85; Plant response rating, Corn [11]: 0; Corn plant response rating (0 to 100 scale, 0 is no effect, 100 is complete control) [11]: 0; Plant response rating, Pigweed [12, 18]: 0; Plant response rating, Pigweed [12, 19]: 0; Pigweed plant response rating (0 to 100 scale, 0 is no effect, 100 is complete control) ([12]; Postemergence, 500 g ai/ha): 0; Plant response rating, Pigweed ([12]; preemergence, 500 g ai/ha): 0; Plant response rating, Foxtail, Giant [13, 18]: 70; Plant response rating, Foxtail, Giant [13, 19]: 50; Foxtail, Giant plant response rating (0 to 100 scale, 0 is no effect, 100 is complete control) ([13]; Postemergence, 500 g ai/ha): 70; Plant response rating, Foxtail, Giant ([13]; preemergence, 500 g ai/ha): 80; Plant response rating, Galium [14]: 0; Galium plant response rating (0 to 100 scale, 0 is no effect, 100 is complete control) [14]: 0"
Cc1cc(C2CNC(=O)C2C(=O)Nc2ccccc2F)ccc1F (racemic) [Compound 139],0,70,80,90,90,0,0,0,30,60,0,0,0,0,0,0,0,0,0,0,"Wheat plant response rating (0 to 100 scale, 0 is no effect, 100 is complete control) [8]: 0; Plant response rating, Blackgrass [9]: 0; Blackgrass plant response rating (0 to 100 scale, 0 is no effect, 100 is complete control) [9]: 20; Plant response rating, Ducksalad [10]: 100; Plant response rating, Corn [11]: 0; Corn plant response rating (0 to 100 scale, 0 is no effect, 100 is complete control) [11]: 0; Plant response rating, Pigweed [12, 18]: 0; Plant response rating, Pigweed [12, 19]: 0; Pigweed plant response rating (0 to 100 scale, 0 is no effect, 100 is complete control) ([12]; Postemergence, 500 g ai/ha): 0; Plant response rating, Pigweed ([12]; preemergence, 500 g ai/ha): 20; Plant response rating, Foxtail, Giant [13, 18]: 50; Plant response rating, Foxtail, Giant [13, 19]: 30; Foxtail, Giant plant response rating (0 to 100 scale, 0 is no effect, 100 is complete control) ([13]; Postemergence, 500 g ai/ha): 30; Plant response rating, Foxtail, Giant ([13]; preemergence, 500 g ai/ha): 90; Plant response rating, Galium [14]: 0; Galium plant response rating (0 to 100 scale, 0 is no effect, 100 is complete control) [14]: 30"
Cc1cc(C2CNC(=O)C2C(=O)Nc2ccc(F)cc2F)ccc1F (racemic) [Compound 140],0,80,70,80,90,0,0,0,0,70,0,0,0,0,0,0,0,0,0,0,"Wheat plant response rating (0 to 100 scale, 0 is no effect, 100 is complete control) [8]: 0; Plant response rating, Blackgrass [9]: 0; Blackgrass plant response rating (0 to 100 scale, 0 is no effect, 100 is complete control) [9]: 20; Plant response rating, Ducksalad [10]: 100; Plant response rating, Corn [11]: 0; Corn plant response rating (0 to 100 scale, 0 is no effect, 100 is complete control) [11]: 0; Plant response rating, Pigweed [12, 18]: 0; Plant response rating, Pigweed [12, 19]: 0; Pigweed plant response rating (0 to 100 scale, 0 is no effect, 100 is complete control) ([12]; Postemergence, 500 g ai/ha): 0; Plant response rating, Pigweed ([12]; preemergence, 500 g ai/ha): 0; Plant response rating, Foxtail, Giant [13, 18]: 50; Plant response rating, Foxtail, Giant [13, 19]: 0; Foxtail, Giant plant response rating (0 to 100 scale, 0 is no effect, 100 is complete control) ([13]; Postemergence, 500 g ai/ha): 50; Plant response rating, Foxtail, Giant ([13]; preemergence, 500 g ai/ha): 90; Plant response rating, Galium [14]: 0; Galium plant response rating (0 to 100 scale, 0 is no effect, 100 is complete control) [14]: 30"
Cc1cc(C2CNC(=O)C2C(=O)Nc2cccc(F)c2F)ccc1F (racemic) [Compound 141],0,90,80,90,90,0,0,20,20,50,0,0,0,40,20,0,0,40,0,0,"Wheat plant response rating (0 to 100 scale, 0 is no effect, 100 is complete control) [8]: 30; Plant response rating, Blackgrass [9]: 0; Blackgrass plant response rating (0 to 100 scale, 0 is no effect, 100 is complete control) [9]: 50; Plant response rating, Ducksalad [10]: 100; Plant response rating, Corn [11]: 0; Corn plant response rating (0 to 100 scale, 0 is no effect, 100 is complete control) [11]: 50; Plant response rating, Pigweed [12, 18]: 0; Plant response rating, Pigweed [12, 19]: 0; Pigweed plant response rating (0 to 100 scale, 0 is no effect, 100 is complete control) ([12]; Postemergence, 500 g ai/ha): 0; Plant response rating, Pigweed ([12]; preemergence, 500 g ai/ha): 0; Plant response rating, Foxtail, Giant [13, 18]: 50; Plant response rating, Foxtail, Giant [13, 19]: 0; Foxtail, Giant plant response rating (0 to 100 scale, 0 is no effect, 100 is complete control) ([13]; Postemergence, 500 g ai/ha): 50; Plant response rating, Foxtail, Giant ([13]; preemergence, 500 g ai/ha): 90; Plant response rating, Galium [14]: 20; Galium plant response rating (0 to 100 scale, 0 is no effect, 100 is complete control) [14]: 50"
Cc1cc(C2CNC(=O)C2C(=O)Nc2ccc(F)c(F)c2F)ccc1F (racemic) [Compound 142],0,90,80,90,90,0,0,0,0,75,0,0,0,20,0,0,0,0,0,0,"Wheat plant response rating (0 to 100 scale, 0 is no effect, 100 is complete control) [8]: 20; Plant response rating, Blackgrass [9]: 0; Blackgrass plant response rating (0 to 100 scale, 0 is no effect, 100 is complete control) [9]: 30; Plant response rating, Ducksalad [10]: 100; Plant response rating, Corn [11]: 0; Corn plant response rating (0 to 100 scale, 0 is no effect, 100 is complete control) [11]: 0; Plant response rating, Pigweed [12, 18]: 0; Plant response rating, Pigweed [12, 19]: 0; Pigweed plant response rating (0 to 100 scale, 0 is no effect, 100 is complete control) ([12]; Postemergence, 500 g ai/ha): 0; Plant response rating, Pigweed ([12]; preemergence, 500 g ai/ha): 0; Plant response rating, Foxtail, Giant [13, 18]: 70; Plant response rating, Foxtail, Giant [13, 19]: 0; Foxtail, Giant plant response rating (0 to 100 scale, 0 is no effect, 100 is complete control) ([13]; Postemergence, 500 g ai/ha): 50; Plant response rating, Foxtail, Giant ([13]; preemergence, 500 g ai/ha): 90; Plant response rating, Galium [14]: 0; Galium plant response rating (0 to 100 scale, 0 is no effect, 100 is complete control) [14]: 40"
